Values quoted from earlier work, collected in US20230131859A1, “BIOCONVERSION OF OLEUROPEIN” (SOCIETE DES PROUITS NESTLES S.A., priority 2017, published 2023).

Experiments:
[1] = in vivo
[2] = compared with hydroxytyrosol

Molecule	clearance from the plasma [1]	solubility in the lipophilic phases [2]
CC=C1C(O)OC=C(C(=O)OC)C1CC(=O)OCCc1ccc(O)c(O)c1 (centres unmarked) [oleuropein aglycone, 3,4-dihydroxyphenylethanol-elenolic acid]	slower clearance from the plasma compared with hydroxytyrosol and oleuropein	–
hydroxytyrosol acetate	–	more soluble in the lipophilic phases than hydroxytyrosol
